Results: publication PMC12279193 (Advanced Science, 2025)

Legend:
[1] = target: SARS-CoV S-trimer protein (Severe acute respiratory syndrome-related coronavirus, UniProt P59594); assay: biochemical; assay type: binding
[2] = target: MERS-CoV S-trimer protein (Betacoronavirus England 1, UniProt K9N5Q8); assay: biochemical; assay type: binding
MERS-CoV S-trimer protein, sequence (K9N5Q8 18-1294 limits assumed): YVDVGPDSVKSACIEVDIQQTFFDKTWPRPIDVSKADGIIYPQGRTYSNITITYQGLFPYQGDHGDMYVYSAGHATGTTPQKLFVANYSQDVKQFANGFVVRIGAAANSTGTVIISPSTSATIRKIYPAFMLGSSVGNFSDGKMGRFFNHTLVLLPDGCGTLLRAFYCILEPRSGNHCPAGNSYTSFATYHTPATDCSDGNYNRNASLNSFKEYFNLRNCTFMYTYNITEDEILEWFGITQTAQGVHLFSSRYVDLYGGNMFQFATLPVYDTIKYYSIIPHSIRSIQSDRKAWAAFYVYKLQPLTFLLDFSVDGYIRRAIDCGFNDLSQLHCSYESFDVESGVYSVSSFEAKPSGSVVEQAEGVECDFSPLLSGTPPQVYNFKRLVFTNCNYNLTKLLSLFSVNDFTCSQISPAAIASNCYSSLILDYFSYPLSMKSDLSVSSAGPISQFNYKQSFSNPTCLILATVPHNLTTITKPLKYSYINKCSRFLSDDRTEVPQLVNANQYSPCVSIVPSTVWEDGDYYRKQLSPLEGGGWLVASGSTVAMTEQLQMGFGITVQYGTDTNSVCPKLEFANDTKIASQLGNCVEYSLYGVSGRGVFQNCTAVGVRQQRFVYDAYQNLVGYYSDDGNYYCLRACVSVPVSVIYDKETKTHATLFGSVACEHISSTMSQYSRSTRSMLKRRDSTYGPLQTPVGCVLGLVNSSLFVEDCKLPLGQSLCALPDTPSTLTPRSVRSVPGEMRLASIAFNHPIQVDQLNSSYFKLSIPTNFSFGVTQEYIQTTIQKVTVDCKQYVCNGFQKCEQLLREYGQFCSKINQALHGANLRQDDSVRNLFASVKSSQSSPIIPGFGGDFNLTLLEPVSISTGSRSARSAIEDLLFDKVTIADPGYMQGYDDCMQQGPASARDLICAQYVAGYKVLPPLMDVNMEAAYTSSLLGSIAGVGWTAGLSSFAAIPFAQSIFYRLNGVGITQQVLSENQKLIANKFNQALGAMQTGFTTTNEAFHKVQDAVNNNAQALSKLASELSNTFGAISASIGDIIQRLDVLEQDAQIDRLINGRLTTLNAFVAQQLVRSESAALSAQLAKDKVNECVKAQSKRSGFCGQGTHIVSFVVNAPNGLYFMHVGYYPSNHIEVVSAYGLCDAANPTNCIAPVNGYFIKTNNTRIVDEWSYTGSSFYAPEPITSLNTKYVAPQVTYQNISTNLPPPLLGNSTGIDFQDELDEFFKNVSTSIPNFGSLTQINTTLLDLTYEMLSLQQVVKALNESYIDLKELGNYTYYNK

## CN(/N=C/c1ccccc1C(=O)O)c1nc(-c2ccccc2Cl)cs1 [S416]
[1]
  Kd: 27.2 µM
[2]
  Kd: 55.4 µM
